In article PMC5936909, “Identification of potent chromone embedded [1,2,3]-triazoles as novel anti-tubercular agents” (Royal Society Open Science, 2018):
Like-named read-outs stand apart in the source and are kept apart here.

Key:
RAW 264.7 cells = test: in vitro cytotoxicity, MTT assay; settings: at 50 µg ml^−1, RAW 264.7 cells
[1] = test system: Mycobacterium tuberculosis H37Rv (ATCC27294); test: in vitro anti-tubercular activity, MABA assay; assay type: cell-based
[2] = M. tuberculosis H37Rv, MABA, lowest concentration with complete inhibition of growth
[3] = Mycobacterium tuberculosis, M. tuberculosis H37Rv, MABA, lowest concentration with complete inhibition of growth, read-out: MIC
[4] = Mycobacterium tuberculosis, supplement page S73 correlation table, read-out: MIC
[5] = Mycobacterium tuberculosis, supplement page S72, standard drugs, read-out: MIC

Compound | cytotoxicity (percentage inhibition of cells) (RAW 264.7 cells) [%] | MIC [1, 2] [µg/mL] | melting point [°C] | MIC [1, 3] [µg/mL] | MIC [1, 4] [µg/mL] | times more active than the standard drug ethambutol ([1]; ratio of MIC values) [times] | MIC [1, 5] [µM]
2-((1H-1,2,3-triazol-1-yl)methyl)-4H-chromen-4-one [6t] | 30.12 | 50 | – | – | – | – | –
3-((4-(4-propylphenyl)-1H-1,2,3-triazol-1-yl)methyl)-4H-chromen-4-one [6d] | 20.60 | 50 | – | – | – | – | –
O=c1c(Cn2cc(-c3ccccc3)nn2)coc2ccccc12 [6a, 3-((4-phenyl-1H-1,2,3-triazol-1-yl)methyl)-4H-chromen-4-one] | 12.86 | – | 154 to 155 | 25 | – | – | –
Cc1ccc(-c2cn(Cc3coc4ccccc4c3=O)nn2)cc1 [6b, 3-((4-(p-tolyl)-1H-1,2,3-triazol-1-yl)methyl)-4H-chromen-4-one] | 26.82 | – | 170 to 172 | 25 | – | – | –
CCc1ccc(-c2cn(Cc3coc4ccccc4c3=O)nn2)cc1 [6c, 3-((4-(4-ethylphenyl)-1H-1,2,3-triazol-1-yl)methyl)-4H-chromen-4-one] | 16.12 | – | – | 25 | – | – | –
CCCCCc1ccc(-c2cn(Cc3coc4ccccc4c3=O)nn2)cc1 [6e, 3-((4-(4-pentylphenyl)-1H-1,2,3-triazol-1-yl)methyl)-4H-chromen-4-one] | 20.12 | – | 147 to 148 | 25 | – | – | –
CC(C)(C)c1ccc(-c2cn(Cc3coc4ccccc4c3=O)nn2)cc1 [6f, 3-((4-(4-(tert-butyl)phenyl)-1H-1,2,3-triazol-1-yl)methyl)-4H-chromen-4-one] | 20.12 | 3.125 | 218 to 219 | – | 3.12 | – | –
COc1ccc(-c2cn(Cc3coc4ccccc4c3=O)nn2)cc1 [6g, 3-((4-(4-methoxyphenyl)-1H-1,2,3-triazol-1-yl)methyl)-4H-chromen-4-one] | 28.40 | 6.25 | 170 to 171 | – | 6.25 | – | –
CCCCCOc1ccc(-c2cn(Cc3coc4ccccc4c3=O)nn2)cc1 [6h, 3-((4-(4-(pentyloxy)phenyl)-1H-1,2,3-triazol-1-yl)methyl)-4H-chromen-4-one] | 18.68 | 3.125 | 154 to 155 | – | 3.12 | – | –
Cc1cccc(-c2cn(Cc3coc4ccccc4c3=O)nn2)c1 [6i, 3-((4-(m-tolyl)-1H-1,2,3-triazol-1-yl)methyl)-4H-chromen-4-one] | 26.82 | – | 124 to 125 | 25 | – | – | –
COc1ccc(-c2cn(Cc3coc4ccccc4c3=O)nn2)c(C)c1 [6j, 3-((4-(4-methoxy-2-methylphenyl)-1H-1,2,3-triazol-1-yl)methyl)-4H-chromen-4-one] | 30.34 | – | 172 to 173 | 50 | – | – | –
O=c1c(Cn2cc(-c3cccc4ccccc34)nn2)coc2ccccc12 [6k, 3-((4-(naphthalen-1-yl)-1H-1,2,3-triazol-1-yl)methyl)-4H-chromen-4-one] | 26.12 | – | 154 to 155 | 50 | – | – | –
O=c1c(Cn2cc(-c3ccccn3)nn2)coc2ccccc12 [6l, 3-((4-(pyridin-2-yl)-1H-1,2,3-triazol-1-yl)methyl)-4H-chromen-4-one] | 30.60 | – | 175 to 176 | 50 | – | – | –
CCCCc1cn(Cc2coc3ccccc3c2=O)nn1 [6m, 3-((4-butyl-1H-1,2,3-triazol-1-yl)methyl)-4H-chromen-4-one] | 36.82 | 6.25 | 87 to 88 | – | 6.25 | – | –
CCCCCCc1cn(Cc2coc3ccccc3c2=O)nn1 [6n, 3-((4-hexyl-1H-1,2,3-triazol-1-yl)methyl)-4H-chromen-4-one] | 23.74 | – | 84 to 85 | 50 | – | – | –
O=c1c(Cn2cc(C3CCCC3)nn2)coc2ccccc12 [6o, 3-((4-cyclopentyl-1H-1,2,3-triazol-1-yl)methyl)-4H-chromen-4-one] | 18.42 | 3.125 | 157 to 158 | – | 3.12 | – | –
O=c1c(Cn2cc(C3CCCCC3)nn2)coc2ccccc12 [6p, 3-((4-cyclohexyl-1H-1,2,3-triazol-1-yl)methyl)-4H-chromen-4-one] | 20.12 | 12.5 | 145 to 146 | – | 12.5 | – | –
O=c1c(Cn2cc(CC3CCCCC3)nn2)coc2ccccc12 [6q, 3-((4-(cyclohexylmethyl)-1H-1,2,3-triazol-1-yl)methyl)-4H-chromen-4-one] | 28.62 | – | 133 to 134 | 25 | – | – | –
O=c1c(Cn2cc(C3(O)c4ccccc4-c4ccccc43)nn2)coc2ccccc12 [6r, 3-((4-(9-hydroxy-9H-fluoren-9-yl)-1H-1,2,3-triazol-1-yl)methyl)-4H-chromen-4-one] | 30.60 | – | 239 to 240 | 50 | – | – | –
O=c1c(Cn2cc(CCCCCCCCCCCCCCCO)nn2)coc2ccccc12 [6s, 3-((4-(15-hydroxypentadecyl)-1H-1,2,3-triazol-1-yl)methyl)-4H-chromen-4-one] | 24.68 | 1.56 | 123 to 124 | – | 1.56 | 4.8 | –
CO[C@H]1/C=C/O[C@@]2(C)Oc3c(C)c(O)c4c(O)c(c(/C=N/N5CCN(C)CC5)c(O)c4c3C2=O)NC(=O)/C(C)=C\C=C\[C@H](C)[C@H](O)[C@@H](C)[C@@H](O)[C@@H](C)[C@H](OC(C)=O)[C@@H]1C [Rifampicin, rifampicin, reference compound] | – | – | – | 0.24 | – | – | 0.24
CC[C@@H](CO)NCCN[C@@H](CC)CO [ethambutol, reference compound] | – | – | – | 7.64 | – | – | 7.64
